From patent US20200253979A1, “THERAPEUTIC METHODS RELATING TO HSP90 INHIBITORS” (AI Therapeutics, Inc., priority 2017, published 2020)

Columns and labels:
FLT3 WT in BaF3 cells = experiment: Cell surface FLT3 in transfected BaF3 cells by flow cytometry; type: cell-based, murine; settings: BaF3, 20-10000 nM, 24 hours
Procedure: (§1) We next sought to determine whether MPC-0767 can also promote the degradation of other FLT3 mutants that have been reported to confer resistance to FLT3 inhibitors. To do this, we again utilized the BaF3 murine cell line into which the following FLT3 mutants were transfected: FLT3 wild-type, FLT3-ITD, D835V, FLT3-ITD D835V, D835Y, FLT3-ITD D835Y, D835H, FLT3-ITD D835H, F691L, or FLT3-ITD F691L.
(§2) After puromycin selection, cells were treated with increasing concentrations of MPC-0767 (20-10000 nM) for 24 hours and then stained for cell surface expression of FLT3 (and mutants) and the median signal expression was quantified by flow cytometry.

[1] = system: FLT3 mutants in BaF3 cells; experiment: as above; type: cell-based, murine; settings: BaF3, cell surface expression, 24 hours
Procedure: as §1, §2

H1975 cells = experiment: 7-AAD / annexin V cell death staining; type: cell-based; settings: 0.7 μM, 72 hours
Procedure: To verify the mechanism of the loss of cell viability, H1975 cells were treated with MPC-0767 (0.7 μM) for 72 hours. After this time, cells were stained with 7-amino-actinomycin D (7-AAD) and annexin V, markers of cell membrane integrity and of apoptosis, respectively.

NOMO1 (NOMO-1) cells = experiment: CellTiter-Glo cell viability (single agent and combination); type: cell-based; settings: NOMO1, 72 h
[2] = system: PD-1+ Jurkat reporter cells with THP-1 AML cells; experiment: Jurkat NFAT-luciferase reporter T cell activation with THP-1 cells; type: cell-based; settings: THP-1 treated overnight with IFNγ and MPC-0767 1 μM or 2 uM
From the text: The addition of antibodies that block the PD-1/PD-L1 pathway stimulate an increased T cell response in vitro, in pre-clinical animal models, and in cancer patients. This can lead to tumor regressions or tumor clearance in patients. To examine MPC-0767 effects on PD-L1 and T cell activation, we used a model system in which PD-1+ Jurkat T cells express luciferase under the control of the NFAT promoter (Promega, hereafter referred to Jurkat reporter cells). When T cells are stimulated through the T cell receptor (TCR), activation of the NFAT pathway drives expression of luciferase.
We next determined whether MPC-0767 reduction of PD-L1 could increase T cell stimulation similar to anti-PD-L1 blocking antibodies. THP-1 cells were treated overnight with IFNγ in the presence or absence of MPC-0767 (1 μM or 2 uM). THP-1 cells were washed and a portion saved for flow cytometry analysis of PD-L1 expression. The remaining cells were incubated with Jurkat reporter cells and anti-CD3 (10 ng/ml) for 6 hours.

[3] = system: OCIAML2 (OCI-AML-2) cells; experiment: CellTiter-Glo cell viability (single agent and combination)
Procedure: To determine whether MPC-0767 is efficacious against non-FLT3-ITD AML cells, we tested a panel of FLT3-wild type (FLT3-WT) AML cell lines and primary AML blasts for sensitivity to MPC-0767. Cells were treated with MPC-0767 for 72 hours before determining cell viability using the CellTiter-Glo® assay. […] To test whether the combination of MPC-0767 was synergistic with ATO, we tested a panel of AML cell lines. The cell lines include those harboring FLT3-ITD (MOLM-13, MOLM-14 and MV-4-11) or FLT3 WT (ME-1, THP-1, OCI-AML-2, HL60, NOMO-1, TUR and ML-2).

Parental BaF3 cells = experiment: CellTiter-Glo cell viability; type: cell-based, murine; settings: Mus musculus; parental BaF3, 72 hours
From the text: (§3) To determine whether MPC-0767 can also promote degradation of an EGFR exon20ins mutant, the BaF3 murine cell line was used (Warmuth et al., Curr Opin Oncol., 200719: 55-60). This cell line is dependent upon exogenous IL-3 for survival/growth but upon introduction of an oncogene, the cells no longer depend on exogenous IL-3, and instead survival is driven by the introduced oncogene. Thus, drugs that target the introduced oncogene will reduce BaF3 cell viability providing a mechanism to screen small molecules against relevant oncogenic mutations that arise in the clinic.
(§4) BaF3 cells harboring EGFR wild type (WT) or EGFR exon20 V769_D770insASV mutant were treated with increasing concentrations of MPC-0767 for 24 hours. After this time, cells were harvested for flow cytometry to assess cell surface EGFR expression (antibody for detection recognized both WT and mutant proteins). […] We further tested whether this finding translated to reduced survival in BaF3 cells expressing the EGFR mutant. Parental BaF3 cells (no mutant) or cells harboring EGFR exon20 V769_D770insASV were treated with increasing concentrations of MPC-0767 for 72 hours after which cell viability was determined using CellTiter-Glo®.

[4] = system: BaF3 cells harboring EGFR exon20 V769_D770insASV; experiment: CellTiter-Glo cell viability; type: cell-based, murine
From the text: as §3, §4

[5] = system: MOLM-13 FLT3-ITD AML cell line; experiment: Systemic survival xenograft study, MPC-0767 single agent; settings: vs vehicle
Procedure: Statistical significance was calculated using Log Rank (Mantel-Cox) test.
Before tumor cell inoculation, NOD/SCID mice were pre-treated for 2 days with a daily intraperitoneal injection of 100 mg/kg cyclophosphamide to facilitate engraftment of the human MOLM-13 tumor cells. After the injection of cyclophosphamide, the animals were allowed to recover for 24 hours prior to inoculation with human MOLM-13 tumor cells. Each mouse was then inoculated with 1×10^7 MOLM-13 cells in 100 μL PBS via intravenous tail vein injection. Mice were next randomized into 3 groups of 6. […] Viability and body weight loss were monitored daily.

[6] = system: cell surface FLT3 in MV-4-11 cells; experiment: Cell surface FLT3 by flow cytometry; type: cell-based; settings: MV-4-11, 1 μM, 24 hours
Procedure: To determine whether MPC-0767 can promote the degradation of FLT3-ITD and abolish downstream signaling, MV-4-11 and MOLM-13 cells were treated with vehicle or MPC-0767 (1 μM) for 24 hours. Cells were harvested for flow cytometry to assess cell surface FLT3 protein abundance. In addition, the measurement of a key phosphorylation site of S6 (phospho-S6) was used as a marker for oncogenic FLT3-ITD signaling (Zimmerman et al., Blood. 2013 122(22): 3607-3615). Indeed, in both MV-4-11 and MOLM-13 cells treated with MPC-0767 there was a >65% reduction in cell surface FLT3 (FIGS. 10A and 10B, respectively) and >70% reduction in phospho-S6 (FIGS. 10C and 10D, respectively).

[7] = system: PD-L1 on primary AML patient samples; experiment: PD-L1 cell surface expression by flow cytometry; type: cell-based, human; settings: 24 hours
Procedure: To study whether MPC-0767 blocks IFN-γ-induced PD-L1 expression, six AML patient samples harboring FLT3 WT (n=2) or FLT3-ITD (n=4) were treated with human IFN-γ (50 ng/ml) alone, MPC-0767 (1 μM) alone or the combination of the two for 24 hours. Cells were then harvested to assess PD-L1 cell surface expression by flow cytometry. Cells were also stained with the AML blast markers CD34 or CD45 (to gate on the blast population) and a viability stain to gate on viable cells.

C[C@H](N)C(=O)O[C@@H](C)C(=O)N1CCC(CCn2c(Sc3cc4c(cc3Br)OCO4)nc3c(N)ncnc32)CC1 [MPC-0767]
cell surface expression of FLT3 WT (FLT3 WT in BaF3 cells): reduced cell surface expression of FLT3 WT | potency against FLT3 mutants compared to FLT3 WT [1]: approximately 5 × | percentage of cells displaying markers of cell death (H1975 cells): increase | percentage of viable cells (7-AAD negative and annexin V negative) (H1975 cells): decrease | EC50 (NOMO1 (NOMO-1) cells; Homo sapiens, NOMO-1): 1450 nM | MPC-0767 Sensitivity (NOMO1 (NOMO-1) cells): Resistant (EC50 values above 1 μM considered resistant) | inhibition of T cell activation [2]: dose-dependently reduce inhibition of T cell activation | EC50 ([3]; Homo sapiens, OCI-AML2, 72 h): 633 nM | MPC-0767 Sensitivity ([3]; OCIAML2, 72 h): Sensitive (cell lines having EC50 values below 1 μM were considered to be sensitive) | EC50 (Parental BaF3 cells): 753 nM | EC50 ([4]; Mus musculus, BaF3 EGFR exon20 V769_D770insASV, 72 hours): 236 nM | sensitivity to MPC-0767 relative to parental cells ([4]; mutant vs parental BaF3, 72 hours): approximately 3 times | increase in median survival ([5]; 75 mg/kg once a day): 1.5 days | increase in median survival ([5]; 150 mg/kg once a day): 10 days | reduction in cell surface FLT3 [6]: > 65% | basal PD-L1 cell surface expression ([7]; MPC-0767 1 μM alone): did not significantly reduce basal PD-L1 cell surface expression | IFN-γ-induced PD-L1 cell surface expression ([7]; MPC-0767 1 μM with IFN-γ 50 ng/ml, P=0.04): significantly reduced the IFN-γ-induced PD-L1 cell surface expression
